In data set [1] the test system is Rattus norvegicus. In words: AUC (0 to 6 hrs) in rat at 5 mg/kg, po. The class given is ADME, organism-based, Plasma. Set-up: time < 6 hr, dose 5 mg/kg, route oral. Conditions: in vivo.
Data set [2] can be described thus: Drug uptake in rat brain at 10 mg/kg, ip after 1 hr. Conditions: read-out: Drug uptake. Set-up: dose 10 mg/kg, route intraperitoneal. The class given is ADME, organism-based.
A short description of data set [3]: Oral bioavailability in rat at 5 mg/kg. It is filed as ADME, organism-based. The note with it: in vivo.
The nature of data set [4]: Metabolic stability in mouse liver microsomes assessed as half life. The class given is ADME, Microsome. (Microsomes from liver hold many membrane-bound enzymes, among them those of drug oxidation.)
A short description of data set [5]: Volume of distribution in rat at 1 mg/kg, iv. It is filed as ADME, organism-based. Also on record: dose 1 mg/kg, route intravenous. Conditions: in vivo.
Data set [6] is described as follows: Metabolic stability in rat liver microsomes assessed as half life. The class given is ADME, Microsome.
Data set [7] in a line: Ratio of drug level in brain to plasma in rat at 10 mg/kg, ip. The class given is ADME, organism-based. Set-up: dose 10 mg/kg, route intraperitoneal. Conditions: brain and plasma, read-out: BPR.
A short description of data set [8]: Metabolic stability in human liver microsomes assessed as half life. The class given is ADME, Microsome.
A short description of data set [9]: Tmax in rat at 5 mg/kg, po. Also on record: dose 5 mg/kg, route oral. The class given is ADME, organism-based. The note with it: in vivo.
For data set [10], the target named is Histamine H3 receptor (Homo sapiens, UniProt Q9Y5N1). In words: Displacement of [3H]-NAMH from human histamine H3 receptor.
Chain of Histamine H3 receptor (Homo sapiens, UniProt Q9Y5N1) (Q9Y5N1 whole entry): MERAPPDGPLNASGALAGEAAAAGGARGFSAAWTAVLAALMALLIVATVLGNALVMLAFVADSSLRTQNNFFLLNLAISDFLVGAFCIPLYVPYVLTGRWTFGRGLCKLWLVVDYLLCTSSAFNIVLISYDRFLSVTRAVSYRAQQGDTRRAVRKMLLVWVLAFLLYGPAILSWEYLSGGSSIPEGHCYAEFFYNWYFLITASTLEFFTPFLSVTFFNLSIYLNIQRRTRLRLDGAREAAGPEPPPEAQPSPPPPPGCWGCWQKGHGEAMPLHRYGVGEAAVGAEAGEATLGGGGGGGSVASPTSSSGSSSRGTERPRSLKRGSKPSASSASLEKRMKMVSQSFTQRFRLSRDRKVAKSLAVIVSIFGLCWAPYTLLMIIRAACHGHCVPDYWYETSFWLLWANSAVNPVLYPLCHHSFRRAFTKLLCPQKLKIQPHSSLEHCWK
For data set [11], the target named is Histamine H3 receptor (Rattus norvegicus, UniProt Q9QYN8). The data set can be described thus: Displacement of [3H]-NAMH from rat histamine H3 receptor. Background: Displacement assays read how much labelled ligand stays bound in the presence of the test substance.
Chain of Histamine H3 receptor (Rattus norvegicus, UniProt Q9QYN8) (Q9QYN8 whole entry): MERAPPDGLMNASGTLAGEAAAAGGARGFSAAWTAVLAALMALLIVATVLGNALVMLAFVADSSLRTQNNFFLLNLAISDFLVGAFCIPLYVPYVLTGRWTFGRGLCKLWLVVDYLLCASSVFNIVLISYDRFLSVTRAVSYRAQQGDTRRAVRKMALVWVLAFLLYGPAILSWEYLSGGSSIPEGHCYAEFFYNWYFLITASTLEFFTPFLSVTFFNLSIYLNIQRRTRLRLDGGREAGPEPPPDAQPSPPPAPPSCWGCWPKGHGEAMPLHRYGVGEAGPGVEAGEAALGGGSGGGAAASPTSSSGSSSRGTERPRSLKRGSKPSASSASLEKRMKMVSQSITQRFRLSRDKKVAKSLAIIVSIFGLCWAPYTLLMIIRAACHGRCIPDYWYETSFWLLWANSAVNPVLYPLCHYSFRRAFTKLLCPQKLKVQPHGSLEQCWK
Data set [12] can be described thus: Cmax in rat at 5 mg/kg, po. The class given is ADME, organism-based. Set-up: dose 5 mg/kg, route oral. The note with it: in vivo.
Data set [13] in a line: Metabolic stability in dog liver microsomes assessed as half life. The class given is ADME, Canis lupus familiaris, Microsome.
The target of the next data set is Cytochrome P450 2D6 (Homo sapiens, UniProt P10635). In words: Inhibition of CYP2D6. It is filed as ADME.
Chain of Cytochrome P450 2D6 (P10635 whole entry): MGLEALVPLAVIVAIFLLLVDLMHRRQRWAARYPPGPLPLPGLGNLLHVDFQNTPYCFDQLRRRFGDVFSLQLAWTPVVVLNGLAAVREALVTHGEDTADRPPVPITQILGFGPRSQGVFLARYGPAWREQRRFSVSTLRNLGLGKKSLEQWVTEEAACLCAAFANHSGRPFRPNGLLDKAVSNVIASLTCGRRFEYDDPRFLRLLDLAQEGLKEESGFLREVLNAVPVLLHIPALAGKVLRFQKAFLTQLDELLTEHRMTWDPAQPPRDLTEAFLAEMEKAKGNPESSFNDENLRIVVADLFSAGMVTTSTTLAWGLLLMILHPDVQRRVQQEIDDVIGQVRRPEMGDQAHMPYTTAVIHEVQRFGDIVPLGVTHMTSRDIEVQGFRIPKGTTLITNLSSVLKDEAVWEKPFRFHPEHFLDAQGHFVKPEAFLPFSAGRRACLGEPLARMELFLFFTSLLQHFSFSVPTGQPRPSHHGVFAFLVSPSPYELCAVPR
Data set [14] is described as follows: Clearance in rat at 1 mg/kg, iv. It is filed as ADME, organism-based. Also on record: dose 1 mg/kg, route intravenous. Conditions: in vivo.
Another data set addresses Cytochrome P450 2C19 (Homo sapiens, UniProt P33261). In words: Inhibition of CYP2C19. The class given is ADME.
The target of another data set is T1, Cytochrome P450 1A2 (Homo sapiens, UniProt P05177).
T1 sequence (P05177 whole entry): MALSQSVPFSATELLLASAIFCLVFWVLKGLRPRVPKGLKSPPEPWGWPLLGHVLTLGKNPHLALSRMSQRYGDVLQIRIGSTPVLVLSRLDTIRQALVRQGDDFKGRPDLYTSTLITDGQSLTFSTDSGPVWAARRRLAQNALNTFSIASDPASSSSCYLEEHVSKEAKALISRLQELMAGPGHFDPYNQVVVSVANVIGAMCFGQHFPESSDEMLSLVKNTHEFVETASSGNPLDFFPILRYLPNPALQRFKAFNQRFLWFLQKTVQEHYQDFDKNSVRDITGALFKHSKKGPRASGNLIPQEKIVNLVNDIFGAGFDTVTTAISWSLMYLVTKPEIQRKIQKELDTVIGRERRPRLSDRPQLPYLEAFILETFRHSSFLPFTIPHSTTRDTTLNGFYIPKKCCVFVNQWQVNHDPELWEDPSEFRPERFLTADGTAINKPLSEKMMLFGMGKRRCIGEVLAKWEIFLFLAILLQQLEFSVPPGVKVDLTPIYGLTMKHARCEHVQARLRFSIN
The data set can be described thus: Inhibition of CYP1A2. The class given is ADME.

The next data set deals with Cytochrome P450 2C9 (Homo sapiens, UniProt P11712). The data set can be described thus: Inhibition of CYP2C9. It is filed as ADME.
Chain of Cytochrome P450 2C9 (P11712 whole entry): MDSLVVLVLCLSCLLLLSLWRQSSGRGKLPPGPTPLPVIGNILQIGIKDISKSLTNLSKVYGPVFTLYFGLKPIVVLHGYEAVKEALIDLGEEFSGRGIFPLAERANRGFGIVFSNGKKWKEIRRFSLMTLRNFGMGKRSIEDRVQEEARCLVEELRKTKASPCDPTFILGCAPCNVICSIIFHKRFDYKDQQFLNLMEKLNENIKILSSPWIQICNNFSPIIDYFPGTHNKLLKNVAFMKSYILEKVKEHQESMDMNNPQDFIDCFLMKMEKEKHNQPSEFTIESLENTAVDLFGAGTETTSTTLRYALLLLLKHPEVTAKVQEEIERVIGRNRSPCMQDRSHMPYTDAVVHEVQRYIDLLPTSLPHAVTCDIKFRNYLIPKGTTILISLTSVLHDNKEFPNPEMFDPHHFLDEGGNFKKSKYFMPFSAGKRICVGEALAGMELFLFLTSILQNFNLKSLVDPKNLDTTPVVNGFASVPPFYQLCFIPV
The next data set concerns the target Cytochrome P450 3A4 (Homo sapiens, UniProt P08684). In words: Inhibition of CYP3A4. The class given is ADME.
Data set [15] in a line: Half life in rat at 1 mg/kg, iv. It is filed as ADME, organism-based. Set-up: dose 1 mg/kg, route intravenous. The note with it: in vivo.
The nature of data set [16]: Cmax in po dosed rat. Conditions: in vivo. Also on record: route oral. The class given is ADME, organism-based.
Data set [17] deals with Rattus norvegicus. The data set can be described thus: AUC (0 to 6 hrs) in po dosed rat. It is filed as ADME, organism-based, Plasma. Also on record: time < 6 hr, route oral. Conditions: in vivo.
Data set [18] in a line: Ratio of drug level in brain to plasma in ip dosed rat. Conditions: brain and plasma, read-out: BPR. It is filed as ADME, organism-based.
Data set [19] in a line: Oral bioavailability in rat. It is filed as ADME, organism-based. The note with it: in vivo.
Data set [20] in a line: Drug uptake in ip dosed rat brain after 1 hr. It is filed as ADME, organism-based. The note with it: read-out: Drug uptake.

Chain of Cytochrome P450 3A4 (P08684 whole entry): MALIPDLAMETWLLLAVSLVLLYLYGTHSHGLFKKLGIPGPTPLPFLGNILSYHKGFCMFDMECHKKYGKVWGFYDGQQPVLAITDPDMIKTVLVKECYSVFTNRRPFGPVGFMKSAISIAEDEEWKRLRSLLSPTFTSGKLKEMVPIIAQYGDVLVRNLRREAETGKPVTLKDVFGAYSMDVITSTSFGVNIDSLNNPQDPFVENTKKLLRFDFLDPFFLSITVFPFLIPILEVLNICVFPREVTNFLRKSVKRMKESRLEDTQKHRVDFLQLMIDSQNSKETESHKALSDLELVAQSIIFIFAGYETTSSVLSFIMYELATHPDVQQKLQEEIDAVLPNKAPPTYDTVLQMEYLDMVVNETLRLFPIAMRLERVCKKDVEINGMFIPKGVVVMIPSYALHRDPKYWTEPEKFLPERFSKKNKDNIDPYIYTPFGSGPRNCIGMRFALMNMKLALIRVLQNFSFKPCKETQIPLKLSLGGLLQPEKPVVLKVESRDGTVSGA
Chain of Cytochrome P450 2C19 (P33261 whole entry): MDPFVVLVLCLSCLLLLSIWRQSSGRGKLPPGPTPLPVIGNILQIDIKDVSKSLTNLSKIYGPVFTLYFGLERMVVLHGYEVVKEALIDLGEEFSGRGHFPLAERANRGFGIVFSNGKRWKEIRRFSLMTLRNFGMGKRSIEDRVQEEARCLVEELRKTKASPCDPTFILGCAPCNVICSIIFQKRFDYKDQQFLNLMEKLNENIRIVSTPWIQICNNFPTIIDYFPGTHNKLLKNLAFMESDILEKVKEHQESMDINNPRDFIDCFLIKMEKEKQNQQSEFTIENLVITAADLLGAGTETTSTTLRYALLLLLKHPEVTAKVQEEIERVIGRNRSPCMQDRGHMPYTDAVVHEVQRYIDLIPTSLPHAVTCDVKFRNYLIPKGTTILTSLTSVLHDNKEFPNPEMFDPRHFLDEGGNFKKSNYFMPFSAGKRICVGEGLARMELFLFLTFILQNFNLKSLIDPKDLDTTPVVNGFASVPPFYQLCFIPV

In the data set with Rattus norvegicus [1], `C[C@@H]1CCCN1CCCOc1ccc(-c2ccc(=O)n(C)n2)cc1` had an AUC of 538 ng·h/mL. Besides, the concentration at 1 h in data set [2] worked out at 3440 ng/g. The compound further showed a bioavailability in data set [3] of 28%. The half-life in [4], in data set [6], in [8] and in data set [13] was above 40 min each time. For the same compound, the Vd in [5] was 6.5 L/kg. Further, the Kp in data set [7] was 3.9. The Tmax in [9] was 60 min. The Ki on Histamine H3 receptor [10] stood at 1 nM; on Histamine H3 receptor [11], 6 nM. In [12], this compound came in with a Cmax of 123 ng/mL.
`Cn1nc(-c2ccc(C(=O)N3CCN4CCC[C@H]4C3)cc2)ccc1=O`: the Ki on Histamine H3 receptor [10] and at Histamine H3 receptor [11] was above 1000 nM each time.
Turning to `Cn1nc(-c2ccc(OC3CCN(C4CCC4)CC3)cc2)ccc1=O`, the half-life in [4] came out at 35 min. Also, the Ki at Histamine H3 receptor [10] and at Histamine H3 receptor [11] was 3 nM throughout.
For `Cn1nc(-c2ccc(OC3CCN(C4CCCC4)CC3)cc2)ccc1=O`, the Ki at Histamine H3 receptor [10] was 3 nM; at Histamine H3 receptor [11] it was 6 nM.
On the same counts, the results for `CN1CCCN(c2ccc(-c3ccc(=O)n(C)n3)cc2)CC1` are above 500 nM and above 1000 nM.
For the compound `Cn1nc(-c2ccc(N3CCN(C4CCCC4)CC3)cc2)ccc1=O`, the Ki on Histamine H3 receptor [10] amounted to 93 nM; at Histamine H3 receptor [11] it was 255 nM.
Taken in the same sequence, the figures for `CC(C)N1CCN(c2ccc(-c3ccc(=O)n(C)n3)cc2)CC1` were 110 nM and 419 nM.
With `Cn1nc(-c2ccc(N3CCN4CCC[C@H]4C3)cc2)ccc1=O`, the inhibition constant (Ki) on Histamine H3 receptor [10] is 308 nM; on Histamine H3 receptor [11], above 1000 nM.
On the same counts, the results for `Cn1nc(-c2ccc(C(=O)N3CCN(C4CCCC4)CC3)cc2)ccc1=O` are 134 nM and 186 nM.
Turning to `CC(C)N1CCN(C(=O)c2ccc(-c3ccc(=O)n(C)n3)cc2)CC1`, the Ki at Histamine H3 receptor [10] turned out to be 167 nM; on Histamine H3 receptor [11], 185 nM.
On to `Cn1nc(-c2ccc(C(=O)N3CCC[C@H]3CN3CCCC3)cc2)ccc1=O`, for which the AUC in the data set with Rattus norvegicus [1] came to 2180 ng·h/mL. In data set [2], the concentration at 1 h worked out at 454 ng/g. The compound further registered a bioavailability in data set [3] of 45%. Also, the IC50 at Cytochrome P450 2D6, on Cytochrome P450 2C19, against Cytochrome P450 1A2, against Cytochrome P450 2C9 and against Cytochrome P450 3A4 was above 30000 nM throughout. This compound had a clearance in data set [14] of 18 mL/min/kg. For the same compound, the half-life was above 40 min in data set [4]; above 40 min in data set [6]; above 40 min in data set [8]; 96 min in data set [15]; above 40 min in data set [13]. For the same compound, in data set [5], the Vd stood at 2.5 L/kg. Besides, the Kp in data set [7] worked out at 0.37. The values for the Ki at Histamine H3 receptor [10] and at Histamine H3 receptor [11] were 10 nM and 84 nM, respectively. The peak concentration (Cmax) in data set [12] is 412 ng/mL.
`O=C(c1ccc(-c2ccc(=O)n(-c3ccc(F)cc3)n2)cc1)N1CCC[C@H]1CN1CCCC1`: in the data set with Rattus norvegicus [1], the AUC amounted to 1020 ng·h/mL. Further, in data set [2], the concentration at 1 h was determined as 529 ng/g. Moreover, the bioavailability in data set [3] came to 13%. In [14], this compound had a clearance of 12 mL/min/kg. Besides, the half-life in [4] is above 40 min; in [6], above 40 min; in [8], above 40 min; in data set [15] it was 60 min; in data set [13], above 40 min. In data set [5], this compound registered a Vd of 1.1 L/kg. In addition, in data set [7], the Kp turned out to be 0.7. The results for the Ki at Histamine H3 receptor [10] and on Histamine H3 receptor [11] were 16 nM and 92 nM, respectively. The Cmax in [12] was 180 ng/mL.
Regarding `O=C(c1ccc(-c2ccc(=O)[nH]n2)cc1)N1CCC[C@H]1CN1CCCC1`, the Ki at Histamine H3 receptor [10] is 17 nM; on Histamine H3 receptor [11] it was 46 nM.
In data set [16], `CNC(=O)c1ccc(Oc2ccc3c(c2)CCN(C2CCC2)CC3)nc1` [GSK189254] yielded a Cmax of 435 ng/mL. In the data set on Rattus norvegicus [17], this compound displayed an AUC of 2600 ng·h/mL. The Kp in [18] was determined as 1.4. In [19], this compound had a bioavailability of 51%. For the same compound, the concentration at 1 h in data set [20] was determined as 1660 ng/g.

The term AUC denotes concentration integrated over time. A low value points to less exposure. For orientation: bioavailability means dose-corrected exposure relative to a reference, in per cent. A high value points to good availability. The half-life is how long it takes for the measured level to halve. The Vd is the apparent volume that relates the amount in the body to the concentration in plasma or blood. The low end stands for little distribution into tissue, the high end for wide distribution into tissue. In general, Tmax refers to the time at which the peak concentration occurs. A word on the Ki: it is a measure of affinity in units of concentration, obtained from inhibition or displacement. High values mean weaker binding, low ones tighter binding. What is called Cmax is the peak of the concentration-time curve. The IC50 is the concentration needed to halve the response being measured. A low value points to greater potency. What is called clearance is the volume of plasma or blood freed of the substance per unit of time. The low end stands for inefficient removal, the high end for efficient removal.

The record behind these values is ChEMBL document CHEMBL1821562, “Amine-constrained pyridazinone histamine H₃ receptor antagonists” (Bioorg Med Chem Lett, 2011).
